Laboratory results as given in paper PMC8234864, “Early Effects of the Soluble Amyloid β25-35 Peptide in Rat Cortical Neurons: Modulation of Signal Transduction Mediated by Adenosine and Group I Metabotropic Glutamate Receptors” (International Journal of Molecular Sciences, 2021).
Where “and” joins values, the source holds several entries; their conditions need not be identical. Equal values may be shown once. Where no end group is shown, it is not given here.

How the values were obtained:
Assay type in all cases: cell-based, rat
PLCβ1 gene expression = PLCβ1 gene expression by real-time RT-PCR; details: 25 µM
Protocol: (§1) Total RNA was extracted using an ABI 6100 Nucleic Acid PrepStation according to the manufacturer’s protocol (Applied Biosystems Inc., Foster City, CA, USA). Total RNA from cells was isolated and stored at −80 °C. The quality of isolated RNA was estimated by the ratio A260/A280 and was in the range of 1.9–2.1. RNA integrity was evaluated by agarose gel electrophoresis according to MIQE guidelines using the “bleach gel” method. RNA concentrations were determined from the A260. One microgram of total RNA was reverse transcribed using Applied Biosystems High-Capacity cDNA Archive Kit.
(§2) To assess relative gene expression in neurons, quantitative real-time RT-PCR analysis was performed with an Applied Biosystems Prism 7500 Fast Sequence Detection System using TaqMan® universal PCR master mix according to the manufacturer’s specifications. […] Levels of RNA expression were determined using the 7500 Fast System SDS software version 1.3.1 (Applied Biosystems) according to the 2^−ΔΔCt method. […] The results from three independent repeat assays, performed in different plates each using different cDNA’s from the cultures analyzed, were averaged to produce a single mean quantity value for each mRNA.

adenylyl cyclase (AC) = assay: Adenylyl cyclase activity, basal and forskolin-stimulated
Protocol: AC activity was determined as previously reported by Murphy with minor modifications. Briefly, control or treated cells were pre-incubated in serum-free DMEM buffered with 20 mM HEPES, pH 7.4, supplemented with 100 µM Ro 20-1724 and 2 U/mL ADA, for 10 min at 37 °C. AC activity was stimulated using specific ligands for 15 min at 37 °C in a final volume of 250 µL. The reaction was stopped by adding 500 µL 0.1 M HCl in absolute ethanol. Once centrifuged at 12,000× g for 10 min, supernatants were evaporated in speed-vac and resuspended in 150 µL assay buffer (50 mM Tris-HCl, 4 mM EDTA). Fifty microliters of the sample were used to determine cAMP accumulation using protein kinase A as a cAMP binding protein and [^3H]cAMP as radioligand. A cAMP standard curve (0–16 pmol) was prepared in the same buffer. Incubation was stopped by rapid filtration through Whatman GF/B filters.

[1] = system: mGluR5 (GRM5) gene expression; assay: mGluR5 gene expression by real-time PCR; details: 25 µM, 24 or 48 h, vs control neurons
Protocol: as §1, §2

[2] = system: Group I mGluR/PLC signalling pathway; assay: Phospholipase C activity (IP3 accumulation), basal and DHPG-stimulated
Protocol: This method was previously reported and is divided into two well-defined steps: IP3 accumulation: culture medium was discharged, and cells were washed twice with DMEM containing 20 mM HEPES, pH 7.4. After 20 min at 37 °C, different ligands were added to cells for 10 min at 37 °C to analyse their effect on PLC activity in a final reaction volume of 300 μL. The enzymatic reaction was stopped and cells lysed by adding 50 μL 2.8 M perchloric acid and placing plates on ice for 30 min. The medium was neutralized with 70 μ[…] Tris-HCl, 2 M KOH, and 60 mM EGTA, transferred to Eppendorf tubes and centrifuged at 12,000× g for 10 min. The supernatant was then collected to determine the IP3 level. IP3 level determination: IP3 levels in cells were determined as previously reported by Palmer and modified by […] [100]. Incubation of [^3H]IP3 (0.2 pmol; 3000-5000 cpm) in assay buffer (100 mM Tris-HCl, 4 mM EDTA, 4 mM EGTA, 4 mg/mL BSA, pH 9.0), binding protein (500-600 μg), and 25-50 μL of supernatant obtained from IP3 accumulation assay was carried out. Samples were incubated at 4 °C for 60 min and centrifuged at 12,000× g for 10 min. Pellets were suspended in 100 μL 0.2% SDS and transferred to scintillation vials to measure radioactivity. A standard curve was made with known [^3H]IP3 concentrations (0.25-10 μM). Nonspecific binding was determined in the presence of 10 μM unlabeled IP3. Binding protein was obtained from bovine suprarenal capsules according to Palmer's protocol.

- basal or forskolin-stimulated AC activity vs control neurons (adenylyl cyclase (AC); 25 µM, 24 h, 5 µM forskolin): No differences
- basal AC activity (adenylyl cyclase (AC); neurons exposed to 25 µM for 24 h): 2.33 ± 0.55 pmol/mg/min
- decrease in DHPG-stimulated PLC activity ([2]; 25 µM, 24 h, 30 µM DHPG for 10 min): 13%
Sequence: GSNKGAIIGLM [Aβ25-35]
- PLCβ1 gene expression decrease over control value (PLCβ1 gene expression; 24 h): 28%
- PLCβ1 gene expression decrease over control value (PLCβ1 gene expression; 48 h): 33%
- mGluR5 gene expression [1]: did not present any significant variation
- basal PLC activity ([2]; neurons exposed to 25 µM for 24 h, unstimulated, absence of DHPG): 17.61 ± 4.85 pmol/mg/min and 17.6 ± 4.8 pmol/mg/min
